{"source": "paper PMC11489721", "about": "(Communications Chemistry, 2024)", "key": {"[1]": {"biological_target": "T1, heterodimeric receptor (T1R2/T1R3), TMD2 binding site (Homo sapiens, UniProt Q7RTX0+Q8TE23)", "T1 sequence (Q8TE23 20-839)": "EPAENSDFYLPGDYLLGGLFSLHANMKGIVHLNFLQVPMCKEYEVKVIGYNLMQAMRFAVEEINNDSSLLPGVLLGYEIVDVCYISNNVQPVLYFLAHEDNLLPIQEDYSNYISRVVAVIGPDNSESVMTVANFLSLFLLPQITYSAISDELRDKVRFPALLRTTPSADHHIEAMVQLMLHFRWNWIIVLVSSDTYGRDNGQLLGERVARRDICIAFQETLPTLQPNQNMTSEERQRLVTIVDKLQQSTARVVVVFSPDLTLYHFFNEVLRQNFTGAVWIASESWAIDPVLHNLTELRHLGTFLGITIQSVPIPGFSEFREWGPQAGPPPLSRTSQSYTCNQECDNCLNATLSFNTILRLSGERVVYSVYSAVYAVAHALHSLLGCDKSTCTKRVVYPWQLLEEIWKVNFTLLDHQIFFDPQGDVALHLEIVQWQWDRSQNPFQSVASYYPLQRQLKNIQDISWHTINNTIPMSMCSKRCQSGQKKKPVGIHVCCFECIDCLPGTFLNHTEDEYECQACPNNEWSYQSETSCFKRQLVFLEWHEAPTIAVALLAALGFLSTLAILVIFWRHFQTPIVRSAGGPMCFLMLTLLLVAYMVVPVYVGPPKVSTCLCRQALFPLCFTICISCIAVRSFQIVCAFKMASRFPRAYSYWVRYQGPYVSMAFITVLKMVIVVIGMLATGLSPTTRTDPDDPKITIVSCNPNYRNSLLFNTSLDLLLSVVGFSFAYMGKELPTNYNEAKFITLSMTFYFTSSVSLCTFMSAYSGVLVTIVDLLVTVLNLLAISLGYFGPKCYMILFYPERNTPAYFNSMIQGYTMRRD", "T1 sequence (Q7RTX0 21-852)": "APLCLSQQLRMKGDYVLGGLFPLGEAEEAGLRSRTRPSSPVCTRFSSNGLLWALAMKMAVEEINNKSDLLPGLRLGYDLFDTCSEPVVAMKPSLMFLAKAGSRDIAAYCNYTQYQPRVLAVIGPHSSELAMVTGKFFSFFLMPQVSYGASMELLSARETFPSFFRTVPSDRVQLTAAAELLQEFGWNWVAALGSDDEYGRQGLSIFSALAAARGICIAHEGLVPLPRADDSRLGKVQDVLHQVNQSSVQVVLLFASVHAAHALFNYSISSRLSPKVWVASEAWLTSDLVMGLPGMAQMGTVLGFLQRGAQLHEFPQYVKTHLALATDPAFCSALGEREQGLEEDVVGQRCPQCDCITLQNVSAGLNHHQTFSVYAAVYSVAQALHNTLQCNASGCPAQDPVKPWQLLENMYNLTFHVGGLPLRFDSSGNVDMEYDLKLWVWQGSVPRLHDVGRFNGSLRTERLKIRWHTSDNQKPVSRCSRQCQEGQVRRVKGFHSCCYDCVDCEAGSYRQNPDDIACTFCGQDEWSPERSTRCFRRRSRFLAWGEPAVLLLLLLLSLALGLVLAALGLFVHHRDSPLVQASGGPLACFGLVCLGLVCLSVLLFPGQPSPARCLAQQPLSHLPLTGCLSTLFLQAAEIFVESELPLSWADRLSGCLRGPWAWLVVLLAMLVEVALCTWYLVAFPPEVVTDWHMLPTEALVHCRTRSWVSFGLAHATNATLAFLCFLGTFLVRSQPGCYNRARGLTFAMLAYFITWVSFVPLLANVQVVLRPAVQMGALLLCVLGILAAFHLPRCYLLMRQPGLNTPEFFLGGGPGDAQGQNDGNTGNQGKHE", "experiment": "Competition binding with [3H]-Perillartine as radioligand", "conditions": "radioligand [3H]-Perillartine"}, "[2]": {"biological_target": "human T1R2/T1R3 sweet taste receptor", "conditions": "HEK293 stably expressing T1R2/T1R3, FLIPR calcium mobilization; cited from earlier work"}, "[3]": {"biological_target": "T2, heterodimeric receptor (T1R2/T1R3) (Homo sapiens, UniProt Q7RTX0+Q8TE23)", "T2 sequence (Q8TE23 20-839)": "T1 sequence (Q8TE23 20-839)", "T2 sequence (Q7RTX0 21-852)": "T1 sequence (Q7RTX0 21-852)", "experiment": "Competition binding with [14C]-sucrose as radioligand"}, "[4]": {"biological_target": "T3, heterodimeric receptor (T1R2/T1R3), presumed VFD2 binding site (Homo sapiens, UniProt Q7RTX0+Q8TE23)", "T3 sequence (Q8TE23 20-839)": "T1 sequence (Q8TE23 20-839)", "T3 sequence (Q7RTX0 21-852)": "T1 sequence (Q7RTX0 21-852)", "experiment": "Competition binding with [3H]-Rebaudioside B as radioligand"}, "[5]": {"biological_target": "T4, heterodimeric receptor (T1R2/T1R3), TMD3 binding site (Homo sapiens, UniProt Q7RTX0+Q8TE23)", "T4 sequence (Q8TE23 20-839)": "T1 sequence (Q8TE23 20-839)", "T4 sequence (Q7RTX0 21-852)": "T1 sequence (Q7RTX0 21-852)", "experiment": "Competition binding with [3H]-lactisole as radioligand", "conditions": "for Ki: radiolabeled ligand lactisole"}}}
{"molecule": "COc1ccc(CCC(=O)c2c(O)cc(O[C@@H]3O[C@H](CO)[C@@H](O)[C@H](O)[C@H]3O[C@@H]3O[C@@H](C)[C@H](O)[C@@H](O)[C@H]3O)cc2O)cc1O", "note": "[NHDC, Neohesperidin Dihydrochalcone]", "values": [{"measurement": "Competitive inhibition with perillartine", "setting": "[1]", "result": "high levels of inhibition"}, {"measurement": "EC50", "setting": "[2]", "result": 10.2, "unit": "µM"}, {"measurement": "Ki", "setting": "[3]", "result": 13600, "unit": "µM"}, {"measurement": "Ki", "setting": "[4]", "result": 63400, "unit": "µM"}, {"measurement": "Competitive inhibition with RebB", "setting": "[4]; radioligand [3H]-Rebaudioside B", "result": "positive inhibition"}, {"measurement": "Ki", "setting": "[5]; Ki (mM), TMD3 binding, Table 4", "result": 0.33, "unit": "mM"}, {"measurement": "Ki", "setting": "[5]; Ki", "result": 0.334, "unit": "mM"}, {"measurement": "Competitive inhibition with lactisole", "setting": "[5]; radioligand [3H]-lactisole", "result": "inhibition"}]}
